Molecular target: T1, hSTING (Homo sapiens, UniProt Q86WV6, G230A/H232R/R293Q/R71H)
T1 construct: host or cells: THP1-Dual KO-IFNAR2 cells
Assay: STING reporter assay (luciferase) in THP1-Dual KO-IFNAR2 cells stimulated with 2'3'cGAMP
Assay type: cell-based
Conditions: 2'3'cGAMP 15 μM, 24 h, luciferase reporter activity
In short: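 THP1-Dual KO-IFNAR2 cells (2×10E6 cells/mL) exposed to compounds at 0.0017-100 μM final, then stimulated with 2′3′cGAMP (15 μM final) delivered by Lipofectamine 2000 transfection. After 24 h at 37° C, secreted luciferase in supernatant read by QUANTI-Luc luminescence; EC50 calculated.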

T1 sequence (Q86WV6 whole entry R71H/G230A/H232R/R293Q): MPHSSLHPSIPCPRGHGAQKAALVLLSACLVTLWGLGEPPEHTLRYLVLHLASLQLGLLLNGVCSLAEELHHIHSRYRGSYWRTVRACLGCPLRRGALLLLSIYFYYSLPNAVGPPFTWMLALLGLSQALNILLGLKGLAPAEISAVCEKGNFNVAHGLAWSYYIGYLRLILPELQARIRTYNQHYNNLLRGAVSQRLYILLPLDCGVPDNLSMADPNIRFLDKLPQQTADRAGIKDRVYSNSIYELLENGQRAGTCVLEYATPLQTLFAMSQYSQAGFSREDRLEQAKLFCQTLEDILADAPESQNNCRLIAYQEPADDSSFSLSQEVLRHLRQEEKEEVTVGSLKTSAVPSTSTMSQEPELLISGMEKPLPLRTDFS

O=C(Nc1cnc(N2CCC(F)(F)CC2)c(Cl)c1)Nc1c[nH]c2cc(F)c(Cl)cc12 [Compound 170, 1-(5-chloro-6-(4.4-difluoropiperidin-1-yl)pyridin-3-yl)-3-(5-chloro-6-fluoro-1H-indol-3-yl)urea]
EC50: 40 to 200 nM

CC1(C)OCC(c2ncc(NC(=O)Nc3c[nH]c4ccccc34)cc2Cl)CO1 [Compound 263, 1-(5-chloro-6-(2,2-dimethyl-1,3-dioxan-5-yl)pyridin-3-yl)-3-(1H-indol-3-yl)urea]
EC50: 200 to 1000 nM

O=C(Nc1cnc(N2CCOCC2)c(Cl)c1)Nc1c[nH]c2cc(F)c(F)cc12 [Compound 165, 1-(5-chloro-6-morpholinopyridin-3-yl)-3-(5,6-difluoro-1H-indol-3-yl)urea]
EC50: 200 to 1000 nM

O=C(Nc1cnc(N2CCC3(CC2)CC(F)(F)C3)c(Cl)c1)Nc1c[nH]c2ccc(Cl)cc12 [Compound 275, 1-(5-chloro-1H-indol-3-yl)-3-(5-chloro-6-(2,2-difluoro-7-azaspiro[3.5]nonan-7-yl)pyridin-3-yl)urea]
EC50: 40 to 200 nM

Cc1cc(NC(=O)Nc2c[nH]c3ccc(F)cc23)cnc1N1CCC(F)(F)CC1 [Compound 195, 1-(6-(4,4-difluoropiperidin-1-yl)-5-methylpyridin-3-yl)-3-(5-fluoro-1H-indol-3-yl)urea]
EC50: 40 to 200 nM

Cc1cc(NC(=O)Nc2c[nH]c3ccc(Cl)cc23)cnc1C1CCN(CC(F)(F)F)CC1 [Compound 133, 1-(5-chloro-1H-indol-3-yl)-3-(5-methyl-6-(1-(2,2,2-trifluoroethyl)piperidin-4-yl)pyridin-3-yl)urea]
EC50: 40 to 200 nM

O=C(Nc1cnc(C2CCC(F)(F)CC2)c(Cl)c1)Nc1c[nH]c2ccccc12 [Compound 248, 1-(5-chloro-6-(4,4-difluorocyclohexyl)pyridin-3-yl)-3-(1H-indol-3-yl)urea]
EC50: 40 to 200 nM

O=C(Nc1cnn(C2CC3(C2)CC(F)(F)C3)c1)Nc1c[nH]c2ccc(Cl)cc12 [Compound 234, 1-(5-chloro-1H-indol-3-yl)-3-(1-(6,6-difluorospiro[3.3]heptan-2-yl)-1H-pyrazo1-4-yl)urea]
EC50: 40 to 200 nM

CCN(C(=O)Nc1c[nH]c2ccc(Cl)cc12)c1cnc(C2CCN(CC(F)(F)F)CC2)c(Cl)c1 [Compound 229, 3-(5-chloro-1H-indol-3-yl)-1-(5-chloro-6-(1-(2,2,2-trifluoroethyl)piperidin-4-yl)pyridin-3-yl)-1-ethylurea]
EC50: 200 to 1000 nM

O=C(Nc1cnc(N2CCC(F)(F)CC2)nc1)Nc1c[nH]c2ccc(Cl)cc12 [Compound 180, 1-(5-chloro-1H-indol-3-yl)-3-(2-(4,4-difluoropiperidin-1-yl)pyrimidin-5-yl)urea]
EC50: 40 to 200 nM

O=C(Nc1ccnc(C2CCCN(CC(F)(F)F)C2)c1)Nc1c[nH]c2cc(F)c(F)cc12 (stereo not shown) [Compound 219, 1-(5,6-difluoro-1H-indol-3-yl)-3-(2-(1-(2,2,2-trifluoroethyl)piperidin-3-yl)pyridin-4-yl)urea]
EC50: 1000 to 5000 nM

O=C(Nc1cnc(N2CC3(CCOC3)C2)c(Cl)c1)Nc1c[nH]c2cc(F)c(F)cc12 [Compound 186, 1-(5-chloro-6-(6-oxa-2-azaspiro[3.4]octan-2-yl)pyridin-3-yl)-3-(5,6-difluoro-1H-indol-3-yl)urea]
EC50: 200 to 1000 nM

O=C(Nc1cnc(N2CCC(F)(F)CC2)cn1)Nc1c[nH]c2cc(F)c(F)cc12 [Compound 194, 1-(5,6-difluoro-1H-indol-3-yl)-3-(5-(4,4-difluoropiperidin-1-yl)pyrazin-2-yl)urea]
EC50: 200 to 1000 nM

O=C(Nc1cnc(N2CCN(CCC(F)(F)F)CC2)c(Cl)c1)Nc1c[nH]c2ccc(Cl)cc12 [Compound 124, 1-(5-chloro-1H-indol-3-yl)-3-(5-chloro-6-(4-(3,3,3-trifluoropropyl)piperazin-1-yl)pyridin-3-yl)urea]
EC50: 40 to 200 nM

O=C(Nc1cnc(N2CCC(F)(F)CC2)c(Cl)c1)Nc1c[nH]c2c(Br)cc(Cl)cc12 [Compound 232, 1-(7-bromo-5-chloro-1H-indol-3-yl)-3-(5-chloro-6-(4,4-difluoropiperidin-1-yl)pyridin-3-yl)urea]
EC50: 200 to 1000 nM

Cc1cc(NC(=O)Nc2c[nH]c3cc(F)c(F)cc23)cnc1N1CC2(C1)CC(F)(F)C2 [Compound 167, 1-(5,6-difluoro-1H-indol-3-yl)-3-(6-(6,6-difluoro-2-azaspiro[3.3]heptan-2-yl)-5-methylpyridin-3-yl)urea]
EC50: 200 to 1000 nM

O=C(Nc1ccc(C2CC(F)(F)C2)c(F)c1)Nc1c[nH]c2ccc(F)cc12 [Compound 272, 1-(4-(3,3-difluorocyclobutyl)-3-fluorophenyl)-3-(5-fluoro-1H-indol-3-yl)urea]
EC50: 40 to 200 nM

O=C(Nc1ccc(C2CCC(F)(F)CC2)nc1)Nc1c[nH]c2ccc(Br)cc12 [Compound 203, 1-(5-bromo-1H-indol-3-yl)-3-(6-(4,4-difluorocyclohexyl)pyridin-3-yl)urea]
EC50: 40 to 200 nM

N#Cc1cc(NC(=O)Nc2c[nH]c3ccccc23)ccc1C1CCC(F)(F)CC1 [Compound 207, 1-(3-cyano-4-(4,4-difluorocyclohexyl)phenyl)-3-(1H-indol-3-yl)urea]
EC50: 40 to 200 nM

O=C(Nc1cncc(C2CCC(F)(F)CC2)c1)Nc1c[nH]c2ccc(Cl)cc12 [Compound 256, 1-(5-chloro-1H-indol-3-yl)-3-(5-(4,4-difluorocyclohexyl)pyridin-3-yl)urea]
EC50: 200 to 1000 nM

C[C@H]1CN(c2ncc(NC(=O)Nc3c[nH]c4cc(F)c(F)cc34)cc2Cl)C[C@H](C)O1 [Compound 147, 1-(5-chloro-6-((2S,6S)-2,6-dimethylmorpholino)pyridin-3-yl)-3-(5,6-difluoro-1H-indol-3-yl)urea]
EC50: 40 to 200 nM

CN(C(=O)Nc1c[nH]c2ccc(Cl)cc12)c1cnc(N2CCC(F)(F)CC2)c(Cl)c1 [Compound 258, 3-(5-chloro-1H-indol-3-yl)-1-(5-chloro-6-(4,4-difluoropiperidin-1-yl)pyridin-3-yl)-1-methylurea]
EC50: 200 to 1000 nM

O=C(Nc1cnc(N2CCN(CC3CC3)CC2)c(Cl)c1)Nc1c[nH]c2ccc(Cl)cc12 [Compound 260, 1-(5-chloro-1H-indol-3-yl)-3-(5-chloro-6-(4-(cyclopropylmethyl)piperazin-1-yl)pyridin-3-yl)urea]
EC50: 40 to 200 nM

Cc1cc(NC(=O)Nc2c[nH]c3cc(F)c(F)cc23)cnc1C1CCN(CC(F)(F)F)CC1 [Compound 166, 1-(5,6-difluoro-1H-indol-3-yl)-3-(5-methyl-6-(1-(2,2,2-trifluoroethyl)piperidin-4-yl)pyridin-3-yl)urea]
EC50: 200 to 1000 nM

COCCN1CCN(c2ncc(NC(=O)Nc3c[nH]c4cc(F)c(F)cc34)cc2Cl)CC1 [Compound 134, 1-(5-chloro-6-(4-(2-methoxyethyl)piperazin-1-yl)pyridin-3-yl)-3-(5,6-difluoro-1H-indol-3-yl)urea]
EC50: 1000 to 5000 nM

CC1(C)CN(c2ncc(NC(=O)Nc3c[nH]c4cc(F)c(F)cc34)cc2Cl)CCO1 [Compound 153, 1-(5-chloro-6-(2,2-dimethylmorpholino)pyridin-3-yl)-3-(5,6-difluoro-1H-indol-3-yl)urea]
EC50: 40 to 200 nM

N#Cc1cc(NC(=O)Nc2c[nH]c3cc(F)c(F)cc23)cnc1N1CCC(F)(F)CC1 [Compound 163, 1-(5-cyano-6-(4,4-difluoropiperidin-1-yl)pyridin-3-yl)-3-(5,6-difluoro-1H-indol-3-yl)urea]
EC50: 40 to 200 nM

O=C(Nc1ccc(N2CCC(F)(F)CC2)nc1)Nc1c[nH]c2ccc(F)cc12 [Compound 273, 1-(6-(4,4-difluoropiperidin-1-yl)pyridin-3-yl)-3-(5-fluoro-1H-indol-3-yl)urea]
EC50: 200 to 1000 nM

From patent US20230127839A1, “COMPOUNDS AND COMPOSITIONS FOR TREATING CONDITIONS ASSOCIATED WITH STING ACTIVITY” (IFM Due, Inc., priority 2019, published 2023)
